Source: patent publication US10448639B2, “Fungicidal pyrazoles” (FMC CORPORATION, priority 2009, dated 2019)

Key:
Botrytis cinerea = assay: Test B: tomato Botrytis, preventive spray on tomato seedlings, visual disease rating; details: tomato Botrytis, 100 = 100% disease control; for Test B disease control rating: 0 = no disease control relative to controls
[1] = test system: Erysiphe graminis f sp. tritici; assay: Test J: wheat powdery mildew, preventive spray on wheat seedlings, visual disease rating; details: wheat powdery mildew, 100 = 100% disease control; for Test J disease control rating: sprayed the day before inoculation, 0 = no disease control relative to controls
[2] = test system: Puccinia recondita f. sp. tritici; assay: Test I: wheat leaf rust, preventive spray on wheat seedlings, visual disease rating; details: wheat leaf rust, 100 = 100% disease control; for Test I disease control rating: sprayed the day before inoculation, 0 = no disease control relative to controls
Septoria nodorum = assay: Test F: Septoria glume blotch, preventive spray on wheat seedlings, visual disease rating; details: 100 = 100% disease control; for Test F disease control rating: 0 = no disease control relative to controls
Alternaria solani = assay: Test C: tomato early blight, preventive spray on tomato seedlings, visual disease rating; details: tomato early blight, 100 = 100% disease control; for Test C disease control rating: 0 = no disease control relative to controls
Septoria tritici = assay: Test G: wheat leaf blotch, preventive spray on wheat seedlings, visual disease rating; details: wheat leaf blotch, 100 = 100% disease control; for Test G disease control rating: sprayed the day before inoculation, 0 = no disease control relative to controls
[3] = test system: Puccinia recondita f. sp. tritici; assay: Test H: wheat leaf rust, curative spray on inoculated wheat seedlings, visual disease rating; details: wheat leaf rust, 100 = 100% disease control; for Test H disease control rating: sprayed after inoculation, 0 = no disease control relative to controls
[4] = 0 = no control relative to controls
[5] = preventive, 0 = no control relative to controls
[6] = Septoria glume blotch, 0 = no control relative to controls
[7] = curative, 0 = no control relative to controls
[8] = preventive spray, 0 = no control
[9] = Septoria glume blotch on wheat, preventive spray, 0 = no control

Structure (SMILES)	Test B rating (% disease control) (Botrytis cinerea; [4]) [%]	Test J rating (% disease control) [1, 4] [%]	Test I rating (% disease control) [2, 5] [%]	Test F rating (% disease control) (Septoria nodorum; [6]) [%]	Test C rating (% disease control) (Alternaria solani; [4]) [%]	Test G rating (% disease control) (Septoria tritici; [4]) [%]	Test H rating (% disease control) [3, 7] [%]	Test B rating (% disease control) (Botrytis cinerea; [8]) [%]	Test J rating (% disease control) [1, 8] [%]	Test I rating (% disease control) [2, 8] [%]	Test F rating (% disease control) (Septoria nodorum; [9]) [%]	Test C rating (% disease control) (Alternaria solani; [8]) [%]	Test G rating (% disease control) (Septoria tritici; [8]) [%]	Test H rating (% disease control) ([3]; curative spray, 0 = no control) [%]	also measured
Cc1nn(C)c(Nc2c(F)cccc2F)c1-c1c(F)cccc1F [compound 247]	100	100	99	60	99	100	0	–	–	–	–	–	–	–	–
Cc1nn(C)c(Nc2ccc(F)cc2Cl)c1-c1c(F)cc(C#N)cc1F [compound 112]	–	–	–	–	–	–	–	100	100	100	99	98	99	53	–
COc1ccc(Nc2c(-c3ccc(Cl)cc3Cl)c(C)nn2C)cc1 [compound 355]	–	–	–	–	–	–	–	–	–	–	–	–	–	–	Test B disease control rating (Botrytis cinerea): 99%; Test J disease control rating [1]: 0%; Test I disease control rating [2]: 91%; Test F disease control rating (Septoria nodorum; Septoria glume blotch on wheat): 0%; Test C disease control rating (Alternaria solani): 0%; Test G disease control rating (Septoria tritici): 100%; Test H disease control rating [3]: 3%
Cc1nn(C)c(Nc2ccc(Cl)cc2F)c1-c1c(F)cc(C#N)cc1F [compound 143]	–	–	–	–	–	–	–	99	100	100	100	99	100	63	–
COc1ccc(Nc2c(-c3ccc(Cl)cc3)c(C)nn2C)c(Cl)c1 [compound 60]	–	–	–	–	–	–	–	75	0	79	0	0	97	59	–
CCOC(=O)Cn1nc(C)c(-c2c(F)cc(F)cc2F)c1Oc1c(F)cc([N+](=O)[O-])cc1F [compound 65]	–	–	–	–	–	–	–	0	0	58	0	0	1	0	–
Cc1nn(C)c(Oc2ccc(C#N)cc2F)c1-c1c(F)cc(F)cc1F [compound 96]	–	–	–	–	–	–	–	99	100	99	99	99	100	9	–
Cc1nn(C)c(Oc2c(Cl)cc(C(F)(F)F)cc2Cl)c1-c1c(F)cc(F)cc1F [compound 30]	–	–	–	–	–	–	–	7	0	79	0	0	41	0	–
Cc1nn(C)c(Oc2ccc([N+](=O)[O-])cc2Cl)c1-c1ccc(F)cc1Cl [compound 119]	–	–	–	–	–	–	–	100	96	99	0	0	100	16	–
COc1cc(F)c(-c2c(C)nn(C)c2Oc2cccc(C#N)c2)c(F)c1 [compound 223]	96	100	100	99	9	100	0	–	–	–	–	–	–	–	–
Cc1cccc(Oc2c(-c3c(F)cc(F)cc3F)c(C)nn2C)c1 [compound 219]	70	0	0	0	0	0	17	–	–	–	–	–	–	–	–
Cc1nn(C)c(Nc2cc(Cl)ccc2F)c1-c1c(F)cc(C#N)cc1F [compound 142]	–	–	–	–	–	–	–	33	90	95	20	13	99	0	–
COc1cc(F)c(Nc2c(-c3ccc(C)cc3)c(C)nn2C)c(F)c1 [compound 80]	–	–	–	–	–	–	–	100	89	86	0	0	99	18	–
COc1cc(F)c(-c2c(C)nn(C)c2Nc2ccc(C#N)cc2Cl)c(F)c1 [compound 117]	–	–	–	–	–	–	–	99	97	98	82	97	100	11	–
COc1cc(F)c(-c2c(C)nn(C)c2Oc2ccc(Cl)c(F)c2)c(F)c1 [compound 152]	100	99	97	87	82	99	9	–	–	–	–	–	–	–	–
Cc1nn(C)c(Nc2c(Cl)cc(F)cc2Cl)c1-c1ccc(Cl)cc1Cl [compound 363]	–	–	–	–	–	–	–	–	–	–	–	–	–	–	Test B disease control rating (Botrytis cinerea): 65%; Test J disease control rating [1]: 43%; Test I disease control rating [2]: 96%; Test F disease control rating (Septoria nodorum; Septoria glume blotch on wheat): 0%; Test C disease control rating (Alternaria solani): 0%; Test G disease control rating (Septoria tritici): 99%; Test H disease control rating [3]: 0%
COc1cccc(Oc2c(-c3c(F)cc(F)cc3F)c(C)nn2C)c1 [compound 213]	97	100	96	0	30	85	94	–	–	–	–	–	–	–	–
COc1ccc(F)c(Nc2c(-c3c(F)cccc3F)c(C)nn2C)c1 [compound 216]	96	99	26	0	0	76	0	–	–	–	–	–	–	–	–
Cc1nn(C)c(Nc2cc([N+](=O)[O-])ccc2F)c1-c1ccc(F)cc1Cl [compound 345]	–	–	–	–	–	–	–	–	–	–	–	–	–	–	Test B disease control rating (Botrytis cinerea): 0%; Test J disease control rating [1]: 0%; Test I disease control rating [2]: 9%; Test F disease control rating (Septoria nodorum; Septoria glume blotch on wheat): 0%; Test C disease control rating (Alternaria solani): 0%; Test G disease control rating (Septoria tritici): 67%; Test H disease control rating [3]: 0%
Cc1nn(C)c(Nc2ccc(F)cc2Cl)c1-c1ccc(C#N)cc1Cl [compound 338]	–	–	–	–	–	–	–	–	–	–	–	–	–	–	Test B disease control rating (Botrytis cinerea): 100%; Test J disease control rating [1]: 99%; Test I disease control rating [2]: 100%; Test F disease control rating (Septoria nodorum; Septoria glume blotch on wheat): 40%; Test C disease control rating (Alternaria solani): 37%; Test G disease control rating (Septoria tritici): 100%; Test H disease control rating [3]: 8%
COc1ccc(-c2c(C)nn(C)c2Oc2ccc(C#N)cc2F)c(Br)c1 [compound 319]	–	–	–	–	–	–	–	–	–	–	–	–	–	–	Test B disease control rating (Botrytis cinerea): 92%; Test J disease control rating [1]: 95%; Test I disease control rating [2]: 99%; Test F disease control rating (Septoria nodorum; Septoria glume blotch on wheat): 100%; Test C disease control rating (Alternaria solani): 88%; Test G disease control rating (Septoria tritici): 100%; Test H disease control rating [3]: 0%
Cc1ccc(Oc2c(-c3c(F)cc(F)cc3F)c(C)nn2C)cc1C#N [compound 250]	98	100	86	0	0	77	0	–	–	–	–	–	–	–	–
Cc1nn(C)c(Nc2cc(F)c(F)c(F)c2)c1-c1ccc(F)cc1Cl [compound 132]	–	–	–	–	–	–	–	99	92	94	0	0	100	0	–
